We go through one compound from patent US20120322886A1, “USE OF A SATURATED AMINES COMPOUND IN MANUFACTURE OF MEDICAMENTS FOR […] HEMATOPOIETIC STEM CELL” (Institute of Transfusion Medicine, Academy of Mili -tary …, priority 2009, published 2012).

Assay [1] relates to hematopoietic stem cells. Put plainly: Mobilization of hematopoietic stem cells into peripheral blood (overall conclusion). The assay is classed as in vivo. The following applies: summary statement; verification processes for other compounds not described.
In assay [2] the test system is CD34+ cells in peripheral blood. Put plainly: Percentage of CD34+ cells in peripheral blood by flow cytometry. The assay is classed as in vivo, C57 mice. The note with it: 5 mg/kg hypodermic injection, 4 h post injection, tail blood; compared to DMSO and G-CSF (FIG. 2). As to the method:
9 C57 mice (Experimental animal center, Academy of Military Medical Sciences), male, were randomly divided into 3 groups: DMSO (Beijing Chemical Inc.) group with 3 mice, G-CSF (Xiamen Baote Biotechnology Inc.) group with 3 mice, TA01 group with 3 mice. Injection volume was calculated on the basis of 5 mg/kg body weight, and the medium for the injection was TE buffer with pH 7.5-8.5. At 4 h post hypodermic injection, 100 μL blood was harvested from tail and treated with RBC lysis buffer (Jingmei Biotechnology Inc.), wherein, the volume ratio of the blood to the RBC lysis buffer was 1:10. The two were uniformly mixed, stood for 10-15 min under room temperature, and then centrifuged for 6 min at 1500 rpm/min. After removing the supernatant, 100 ul 1% (v/v) serum (Hyclone Inc.) was added and mixed. Then 0.75 ul purified anti-mouse CD34 (Biolegend Inc) was added (operated on a superclean bench), mixed, and incubated for 1-2 h under room temperature. The mixture was added up to 1.5 ml with PBS containing 1% (v/v) serum, and then centrifuged for 5 min at 1500 rpm/min. After removing the supernatant, 100 ul 1% (v/v) serum was added and mixed. Then 2 ul Goat anti Mice antibody labeled with FITC (Beijing Zhongshanjinqiao Biotechnology Limited Co.) was added, mixed and incubated for 30 min under room temperature. […]
On the technique in general: In flow cytometry, cells or beads pass a laser one at a time.

Assay [3] concerns MNCs in peripheral blood. Briefly: CFU and CFU-GM generated by MNCs in peripheral blood (semisolid medium culture). The note with it: 5 mg/kg hypodermic injection, blood at 4 h, MNCs cultured 7 days; compared to DMSO and G-CSF (FIG. 4). The assay is classed as in vivo, C57 mice. As to the method:
9 C57 mice, male, were randomly divided into 3 groups: DMSO group with 3 mice, G-CSF group with 3 mice, TA01 group with 3 mice. Injection volume was calculated on the basis of 5 mg/kg body weight, and the medium for injection was TE buffer with pH 7.5-8.5. At 4 h post hypodermic injection, the eyeballs were extracted and the peripheral blood was collected into a 10 ml centrifuge tube which was rinsed with heparin (Tianjin Haoyang Bioproduct Technology Limited Co.) in advance, and then PBS (Hyclone Inc.) was added up to 5 ml and mixed. Mouse percoll (Tianjin Haoyang Bioproduct Technology Limited Co.) was preloaded into vials at 5 ml/vial (operated on a superclean bench), and then the blood mixed with PBS was slightly impregnated into the upper layer of the percoll and centrifuged for 20 min at 2000 rpm/min. Cells in the middle layer were transferred into a new 10 ml centrifuge tube which was filled up to 10 ml with PBS, and centrifuged for 5 min at 1500 rpm/min to remove PBS in the supernatant. The tube was filled up to 10 ml with PBS, centrifuged for another 5 min at 1500 rpm/min to remove PBS in the supernatant. Then, the tube was filled up to 1 ml with PBS. The number of cells was then counted and the number of the mononuclear cells (MNCs) per ml of the solution was calculated. […] Finally, CFU and CFU-GM were counted.

The test system of assay [4] is mice receiving a lethal irradiation. Put plainly: Survival of lethally irradiated mice after transplant of mobilized peripheral blood MNCs. It counts as in vivo, C57 mice. The note with it: 7.0 Gy 60Co irradiation; tail vein injection of MNCs from donors given 5 mg/kg, 4 h; survival in 30 days; compared to DMSO and G-CSF (FIG. 5). Here is the method: 9 C57 mice, male, were randomly divided into 3 groups, and then received a whole body irradiation by ^60Co γ ray at 2.72 Gy/min with a volume of 7.0 Gy. 9 C57 mice, male, were randomly divided into 3 groups: DMSO group with 3 mice, G-CSF group with 3 mice, and TA01 group with 3 mice. Injection volume was calculated on the basis of 5 mg/kg body weight, and the medium for injection was TE buffer with pH 7.5-8.5. At 4 h post hypodermic injection, the eyeballs were extracted and peripheral blood was collected into a 10 ml centrifuge tube which was rinsed with heparin in advance, and then PBS was added up to 5 ml and mixed. Mouse percoll (Tianjin Haoyang Bioproduct Technology Limited Co.) was preloaded into vials at 5 ml/vial (operated on a superclean bench), and then the blood mixed with PBS was slightly impregnated to the upper layer of the percoll and centrifuged for 20 min at 2000 rpm/min. Cells in the middle layer were transferred into a new 10 ml centrifuge tube which was filled up to 10 ml with PBS, centrifuged for 5 min at 1500 rpm/min to remove PBS in the supernatant. The tube was filled up to 10 ml with PBS, and centrifuged for another 5 min at 1500 rpm/min to remove PBS in the supernatant. Then the tube was filled up to 0.5 ml with PBS. […] The number of survival mice in 30 days was counted.

Assay [5] relates to WBCs in peripheral blood. Briefly: Number of WBCs in peripheral blood (Sysmex Microcell Counter). The note with it: 5 mg/kg hypodermic injection, 4 h post injection, tail blood; compared to DMSO and G-CSF (FIG. 3). It counts as in vivo, C57 mice. As to the method: 9 C57 mice, male, were randomly divided into 3 groups: DMSO group with 3 mice, G-CSF group with 3 mice, and TA01 group with 3 mice. Injection volume was calculated on the basis of 5 mg/kg body weight, and the medium for injection was TE buffer with pH 7.5-8.5. At 4 h post hypodermic injection, 10 μl blood was harvested from tail and treated with 2 ml cell diluting buffer (Jinnan Bolai Biotechnology Limited Co.). The number of WBCs was determined by a Sysmex Microcell Counter.

SMILES strings stand for the structures.

As to `CN(C)CCN(CCN(C)C)CCN(C)C` [TA01, Tris[2-(dimethylamino)ethyl]amine], in assay [1], the “mobilization of hematopoietic stem cells into peripheral blood” value is on record as “can efficiently mobilize hematopoietic stem cells into peripheral blood”. Besides, the “percentage of CD34+ cells in peripheral blood” value in assay [2] was “can increase the percentage of CD34+ cells in peripheral blood compared to DMSO and G-CSF”. For the same compound, in assay [3], the “number of CFU generated by MNCs in peripheral blood” value is “can promote the numbers of both CFU and CFU-GM”; the “number of CFU-GM generated by MNCs in peripheral blood” value was “can promote the numbers of both CFU and CFU-GM”. For the same compound, the “survival rate of mice receiving a lethal irradiation” value in assay [4] is “survival rate of the mice receiving a lethal irradiation can be increased”. Also, the “number of WBCs in peripheral blood” value in assay [5] is “can increase the number of WBCs in peripheral blood compared to DMSO and G-CSF”.
